Laboratory results reported in publication PMC6334005, “Ginsenosides Act As Positive Modulators of P2X4 Receptors” (Molecular Pharmacology, 2019).

Tests used:
[1] = molecular target: T1, hP2X4 (Homo sapiens, UniProt Q99571); test: cell-based; design: gene P2RX4
T1 sequence (Q99571 1-388): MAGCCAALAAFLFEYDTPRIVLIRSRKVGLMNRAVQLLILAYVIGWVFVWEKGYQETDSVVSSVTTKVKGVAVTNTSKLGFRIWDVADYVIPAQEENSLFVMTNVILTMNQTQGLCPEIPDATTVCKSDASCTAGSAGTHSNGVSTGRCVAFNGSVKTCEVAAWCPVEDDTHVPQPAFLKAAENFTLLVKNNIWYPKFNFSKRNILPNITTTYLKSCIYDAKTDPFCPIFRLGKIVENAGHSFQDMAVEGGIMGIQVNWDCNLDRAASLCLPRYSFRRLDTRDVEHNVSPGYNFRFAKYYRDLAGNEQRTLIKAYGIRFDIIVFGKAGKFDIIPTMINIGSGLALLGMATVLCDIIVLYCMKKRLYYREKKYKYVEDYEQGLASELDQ

[2] = molecular target: T1, hP2X4; test: YOPRO-1 dye uptake, potentiation of ATP response; assay type: cell-based; design: gene P2RX4; full-length, C-terminal Glu-Glu tag, pcDNA3, stably expressed in HEK-293 cells; homotrimer

| EC50 [1] | EC50 [2] | Compound |
| --- | --- | --- |
| 1.92 µM |  | Nc1ncnc2c1ncn2[C@@H]1O[C@H](COP(=O)(O)OP(=O)(O)OP(=O)(O)O)[C@@H](O)[C@H]1O [ATP] |
|  | 10.5 µM | CC(C)=CCC[C@](C)(O[C@@H]1O[C@H](CO[C@@H]2O[C@H](CO)[C@@H](O)[C@H](O)[C@H]2O)[C@@H](O)[C@H](O)[C@H]1O)[C@H]1CC[C@]2(C)[C@@H]1[C@H](O)C[C@@H]1[C@@]3(C)CC[C@H](O[C@@H]4O[C@H](CO)[C@@H](O)[C@H](O)[C@H]4O[C@@H]4O[C@H](CO)[C@@H](O)[C@H](O)[C@H]4O)C(C)(C)[C@@H]3CC[C@]12C [Rb1] |
|  | 7.5 µM | CC(C)=CCC[C@](C)(O[C@@H]1O[C@H](CO)[C@@H](O)[C@H](O)[C@H]1O)[C@H]1CC[C@]2(C)[C@@H]1[C@H](O)C[C@@H]1[C@@]3(C)CC[C@H](O[C@@H]4O[C@H](CO)[C@@H](O)[C@H](O)[C@H]4O[C@@H]4O[C@H](CO)[C@@H](O)[C@H](O)[C@H]4O)C(C)(C)[C@@H]3CC[C@]12C [Rd] |

| Compound | EC50 [1] | EC50 [2] |
| --- | --- | --- |
| CC(C)=CCC[C@](C)(O[C@@H]1O[C@H](CO)[C@@H](O)[C@H](O)[C@H]1O)[C@H]1CC[C@]2(C)[C@@H]1[C@H](O)C[C@@H]1[C@@]3(C)CC[C@H](O)C(C)(C)[C@@H]3CC[C@]12C [CK] |  | 8.5 µM |
